Consider one substance from patent US8372955B2, “Purified antibody to the extracellular domain of NKp44L” (Assistance Publique Hopitaux de Paris, priority 2003, dated 2013).

In data set [1] the test system is purified CD4+ T cells. The data set is described as follows: NK lysis sensitivity of treated CD4+ T cells, 4-h 51Cr-release assay with activated autologous purified NK cells. As to conditions: 6-mers peptide, preliminary experiment. The class given is cell-based, human. As for the experimental part:
NK lines were generated from PBMC, and then purified using the StemSep cell separation system and the NK cell enrichment antibody cocktail (StemCell technologies). NK purified cells were cultured in MyeloCult H5100 medium (StemCell technologies) supplemented with 100 units rhIL-2 (Boheringer). The purity of these preparations was evaluated by flow cytometry after staining with anti-CD3 (BD), anti-CD56 (BD), anti-NKp44, and anti-NKp46 mAbs.
The cytololytic activity was assayed in 4-h ^51Cr-release assay as previously described. Briefly, the target cells were labeled for 2-h at 37° C. with 100 μCi per 10^6 cells Na^51Cr (Amersham), and washed twice with culture medium. The target cells were then distributed in round-bottomed 96-well microtiter plates (4×10^3 cells per well), and the effector cells were added at several E/T ratio. The plates were incubated 4-h at 37° C. The supernatant were then collected and ^51Cr-release was measured in a gamma counted. In experiments in which Abs were included, these were added to final concentration of 20 μg/ml. The relative specific ^51Cr-release was calculated as previously described. Values for spontaneous ^51Cr-release, which are deducted in the calculation, were between 10 and 20% of the total incorporated radioactivity. The results are presented after subtraction of the nonspecific lysis obtained with control targets. […]

In data set [2] the test system is purified CD4+ T cells. The class given is cell-based, human. As to conditions: 6-mers peptide, preliminary experiment.

Consider “H-SWSNKS-OH [NH2-SWSNKS—COOH, NH2-SWSNKS—COOH (SEQ ID NO: 7)]”, for which, in data set [1], the NK cytotoxic activity entry is recorded as “any increased”. Moreover, the “Cell surface expression of NKp44L” value in data set [2] is “any increased”.
